First: O=C(CN1CC2CCC(C1)N2c1cccnc1)N1CCc2nn(-c3ccccn3)cc2C1
Second: O=C(CN1CC2CCC(C1)N2c1cccnc1)N1CCc2nn(-c3ccc(C(F)(F)F)cn3)cc2C1
The melting point of the first is lower: 61 to 62 °C for the first, 150 to 151 °C for the second.

First: O=C(CN1CCN(c2cncc(Cl)n2)CC1)N1CCc2nn(-c3ccc(C(F)(F)F)cn3)cc2C1 [compound 108, 2-(6′-chloro-2,3,5,6-tetrahydro[1,2′]bipyrazinyl-4-yl)-1-[2-(5-trifluoromethylpyridin-2-yl)-2,4,6,7-tetrahydropyrazolo[4,3-c]pyridin-5-yl]ethanone]
Second: C[C@@H]1CN(c2ccc(Cl)cn2)C[C@H](C)N1CC(=O)N1CCc2nn(-c3ccc(C(F)(F)F)cn3)cc2C1 [compound 112, 2-[(2S,6R)-4-(5-chloropyridin-2-yl)-2,6-dimethylpiperazin-1-yl]-1-[2-(5-trifluoromethylpyridin-2-yl)-2,4,6,7-tetrahydropyrazolo[4,3-c]pyridin-5-yl]ethanone]
The melting point of the first is higher: 185 to 186 °C for the first, 165 to 166 °C for the second.

Compared with `O=C(OC1CCC1)c1ccc(N2C3CCC2CN(CC(=O)N2CCc4nn(-c5ccccc5)cc4C2)C3)nc1`, `N#Cc1ccc(N2C3CCC2CN(CC(=O)N2CCc4nn(-c5ccccc5)cc4C2)C3)nc1` is higher in melting point: 176 to 177 °C for the first, 198 to 200 °C for the second.

First: C[C@@H]1CN(CC(=O)N2CCc3nc(-c4ccccc4)sc3C2)[C@@H](C)CN1c1ccc(C(=O)O)cn1 [compound 63, 6-{(2R,5S)-2,5-dimethyl-4-[2-oxo-2-(2-phenyl-6,7-dihydro-4H-thiazolo[5,4-c]pyridin-5-yl)ethyl]piperazin-1-yl}nicotinic acid]
Second: C[C@@H]1CN(CC(=O)N2CCc3nn(-c4ccccc4)cc3C2)[C@@H](C)CN1c1ccc(C#N)cn1 [compound 52, 6-{(2R,5S)-2,5-dimethyl-4-[2-oxo-2-(2-phenyl-2,4,6,7-tetrahydropyrazolo[4,3-c]pyridin-5-yl)ethyl]piperazin-1-yl}nicotinonitrile]
The melting point of the first is higher: 220 to 221 °C for the first, 156 to 159 °C for the second.

First: C[C@@H]1CN(c2ccc(-c3nnnn3C)cn2)C[C@H](C)N1CC(=O)N1CCc2nn(-c3ccccc3)cc2C1 [compound 86, 2-{(2S,6R)-2,6-dimethyl-4-[5-(1-methyl-1H-tetrazol-5-yl)pyridin-2-yl]piperazin-1-yl}-1-(2-phenyl-2,4,6,7-tetrahydropyrazolo[4,3-c]pyridin-5-yl)ethanone]
Second: C[C@@H]1CN(c2ccc3ccccc3n2)C[C@H](C)N1CC(=O)N1CCc2nn(-c3ccccc3)cc2C1 [compound 129, 2-((2S,6R)-2,6-dimethyl-4-quinolin-2-ylpiperazin-1-yl)-1-(2-phenyl-2,4,6,7-tetrahydropyrazolo[4,3-c]pyridin-5-yl)ethanone]
The melting point of the first is lower: 198 to 199 °C for the first, 203 to 204 °C for the second.

`COc1ccc(-c2nc3c(s2)CN(C(=O)CN2[C@H](C)CN(c4ncc(F)cn4)C[C@@H]2C)CC3)cc1` [compound 132, 2-[(2S,6R)-4-(5-fluoropyrimidin-2-yl)-2,6-dimethylpiperazin-1-yl]-1-[2-(4-methoxyphenyl)-6,7-dihydro-4H-thiazolo[5,4-c]pyridin-5-yl]ethanone] and `COC(=O)c1ccc(N2C3CCC2CN(CC(=O)N2CCc4nc(-c5ccc(OC)cc5)sc4C2)C3)nc1` cannot be ordered by melting point: 159 to 161 °C for the first, 159 to 160 °C for the second.

First: O=C(CN1CC2CCC(C1)N2c1ccc(C(F)(F)F)cn1)N1CCc2nn(-c3ccccc3)cc2C1
Second: O=C(CN1CC2CC1CN2c1ccc(C(F)(F)F)cn1)N1CCc2nn(-c3ccccc3)cc2C1 (centres unmarked) [compound 127, 1-(2-phenyl-2,4,6,7-tetrahydropyrazolo[4,3-c]pyridin-5-yl)-2-[5-(5-trifluoromethylpyridin-2-yl)-2,5-diazabicyclo[2.2.1]hept-2-yl]ethanone]
The melting point of the first is higher: 212 to 213 °C for the first, 174 to 175 °C for the second.

First: O=C(CN1CC2CCC(C1)N2c1ncc(F)cn1)N1CCc2c(cnn2-c2ccc(F)cc2)C1
Second: O=C(CN1CC2CCC(C1)N2c1ncc(F)cn1)N1CCc2c(cnn2-c2ccc(C(F)(F)F)cc2)C1
The melting point of the first is lower: 151 to 152 °C for the first, 162 to 164 °C for the second.

First: O=C(CN1CCN(c2ccc(C(F)(F)F)cn2)C(=O)C1)N1CCc2nc(-c3ccc(F)cc3)[nH]c2C1 [compound 120, 4-{2-[2-(4-fluorophenyl)-3,4,6,7-tetrahydroimidazo[4,5-c]pyridin-5-yl]-2-oxoethyl}-1-(5-trifluoromethylpyridin-2-yl)piperazin-2-one]
Second: O=C(CN1CCN(c2ccc(C(F)(F)F)cn2)C(=O)C1)N1CCc2nc(-c3ccccc3)oc2C1 [compound 96, 4-[2-oxo-2-(2-phenyl-6,7-dihydro-4H-oxazolo[5,4-c]pyridin-5-yl)ethyl]-1-(5-trifluoromethylpyridin-2-yl)piperazin-2-one]
The melting point of the first is higher: 190 to 192 °C for the first, 175 °C for the second.

First: O=C(CN1CC2CCC(C1)N2c1ccc(C(F)(F)F)cn1)N1CCc2cc(-c3ccccc3)oc2C1
Second: O=C(CN1CC2CCC(C1)N2c1ccc(C(F)(F)F)cn1)N1CCc2nc(-c3ccccc3)[nH]c2C1
The melting point of the first is higher: 155 °C for the first, 150 to 152 °C for the second.

First: C[C@@H]1CN(c2ncc(C(=O)O)cn2)C[C@H](C)N1CC(=O)N1CCc2nn(-c3ccccc3)cc2C1 [compound 75, 2-{(3S,5R)-3,5-dimethyl-4-[2-oxo-2-(2-phenyl-2,4,6,7-tetrahydropyrazolo[4,3-c]pyridin-5-yl)ethyl]piperazin-1-yl}pyrimidine-5-carboxylic acid]
Second: C[C@@H]1CN(c2cccnc2)C[C@H](C)N1CC(=O)N1CCc2nn(-c3ccc(C(F)(F)F)cn3)cc2C1 [compound 143, 2-((2S,6R)-2,6-dimethyl-4-pyridin-3-ylpiperazin-1-yl)-1-[2-(5-trifluoromethylpyridin-2-yl)-2,4,6,7-tetrahydropyrazolo[4,3-c]pyridin-5-yl]ethanone]
The melting point of the first is lower: 94 to 97 °C for the first, 196 to 197 °C for the second.

First: O=C(O)c1ccc(N2C3CCC2CN(CC(=O)N2CCc4nc(-c5ccsc5)sc4C2)C3)nc1
Second: O=C(CN1CC2CCC(C1)N2c1ccc(-c2noc(=O)[nH]2)cn1)N1CCc2nc(-c3ccccc3)sc2C1
The melting point of the first is higher: 262 to 264 °C for the first, 215 to 218 °C for the second.

First: C[C@@H]1CN(c2ccc(C(=O)O)cn2)C[C@H](C)N1CC(=O)N1CCc2c(cnn2C(C)(C)C)C1 [compound 93, 6-{(3S,5R)-4-[2-(1-tert-butyl-1,4,6,7-tetrahydropyrazolo[4,3-c]pyridin-5-yl)-2-oxoethyl]-3,5-dimethylpiperazin-1-yl}nicotinic acid]
Second: C[C@@H]1CN(c2ccc(C(=O)O)cn2)C[C@H](C)N1CC(=O)N1CCc2nn(C(C)(C)C)cc2C1 [compound 105, 6-{(3S,5R)-4-[2-(2-tert-butyl-2,4,6,7-tetrahydropyrazolo[4,3-c]pyridin-5-yl)-2-oxoethyl]-3,5-dimethylpiperazin-1-yl}nicotinic acid]
The melting point of the first is higher: 150 to 151 °C for the first, 120 to 121 °C for the second.

First: O=C(CN1CCN(c2ccc(C(F)(F)F)cn2)C(=O)C1)N1CCc2nn(-c3ccc(C(F)(F)F)cn3)cc2C1 [compound 65, 4-{2-oxo-2-[2-(5-trifluoromethylpyridin-2-yl)-2,4,6,7-tetrahydropyrazolo[4,3-c]pyridin-5-yl]ethyl}-1-(5-trifluoromethylpyridin-2-yl)piperazin-2-one]
Second: O=C(CN1CC2CCC(C1)N2c1ncc(F)cn1)N1CCc2nc(-c3ccccc3)ncc2C1
The melting point of the first is lower: 200 to 201 °C for the first, 212 to 213 °C for the second.

`O=C(CN1CC2CCC(C1)N2c1ncc(F)cn1)N1CCc2nc(-c3ccncc3)sc2C1` showed a melting point of 193 to 194 °C.
